Where “and” joins values, the source holds several entries; their conditions need not be identical. Equal values may be shown once.
Assays:
Mus musculus [1] = conditions: uterotrophic, injection, subcutaneous, Active
Rattus norvegicus [2] = conditions: for LEL: uterotrophic, Active
Canidae [3] = conditions: subchronic; duration: 3 months; oral; gavage; M/F; Beagle; Mydriasis
Canidae [4] = conditions: subchronic; duration: 90 days; oral; Beagle
Mus musculus [5] = conditions: for LD50: acute
Rattus norvegicus [6] = test system: Rattus norvegicus
Rattus norvegicus [7] = conditions: chronic; duration: 6 months; oral; diet; M; increased liver-to-body weight and liver-to-brain weight ratios
Rattus norvegicus [8] = conditions: developmental, oral, M
Rattus norvegicus [9] = conditions: chronic; duration: 26 weeks; oral; diet; Liver: Altered weight

CCCCCCCCCc1ccc(O)cc1 [4-Nonylphenol]
LEL (Mus musculus [1]; duration: 0.17 days): 0.022 mg
LEL (Rattus norvegicus [2]; duration: 1 days, injection, subcutaneous): 200 mg/kg-day and 600 mg/kg-day
LEL (Rattus norvegicus [2]; duration: 3 days, injection, intraperitoneal): 100 mg/kg-day
LEL (Rattus norvegicus [2]; duration: 5 days, oral): 100 mg/kg-day
LEL (Rattus norvegicus [2]; duration: 7 days, oral): 120 mg/kg-day
LEL (Rattus norvegicus [2]; duration: 11 days, oral): 150 mg/kg-day

Cc1ccc2c(=O)c3cccc(CC(=O)O)c3oc2c1C [5,6-Dimethylxanthenone-4-acetic acid]
LOEL (Canidae [3]): 0.3 mg/kg-day
NOEL (Canidae [3]): 0.1 mg/kg-day

CCCCOC(=O)c1ccccc1C(=O)OCc1ccccc1 [Benzyl butyl phthalate]
NOAEL (Canidae [4]): 500 mg/kg-day
LD50 (Oryctolagus sp.; acute, dermal): > 10000 mg/kg
NOAEL (Oryctolagus sp.; reproduction developmental, duration: 12 days, oral, F, New Zealand): 10 mg/kg-day
LD50 (Mus musculus [5]; injection, Intraperitoneal, Swiss-Webster): 3160 mg/kg
LD50 (Mus musculus [5]; oral): 4170 mg/kg
NOAEL (Mus musculus [5]; short-term, duration: 14 days, oral, diet, B6C3F1): > 5250 mg/kg-day
LC50 (Rattus norvegicus [6]; acute, inhalation): > 6.7 mg/L
LD50 (Rattus norvegicus [6]; acute, injection, Intraperitoneal): 2660 mg/kg
NOAEL (Rattus norvegicus [6]; chronic, duration: 182 days, oral, diet, Fischer 344): 470 mg/kg-day
LOAEL (Rattus norvegicus [6]; chronic, duration: 365 days, oral, diet, F, Fischer 344): 360 mg/kg-day
NOAEL (Rattus norvegicus [6]; reproduction developmental, duration: 26 weeks, oral, diet, Fischer 344, generation: F0): 498 mg/kg-day
NOAEL (Rattus norvegicus [6]; reproduction developmental, duration: 26 weeks, oral, diet, Fischer 344, generation: F1): 168 mg/kg-day
NOAEL (Rattus norvegicus [6]; reproduction developmental, duration: 26 weeks, oral, diet, M, Fischer 344): 168 mg/kg-day
NOAEL (Rattus norvegicus [6]; reproduction developmental, duration: 8 days, oral, gavage, F, Wistar): 500 mg/kg-day
NOAEL (Rattus norvegicus [6]; reproduction developmental, duration: 8 days, oral, gavage, Wistar, generation: F1): 500 mg/kg-day
NOAEL (Rattus norvegicus [6]; reproduction developmental, duration: 10 days, oral, diet, F, Sprague-Dawley): 420 mg/kg-day
NOAEL (Rattus norvegicus [6]; reproduction developmental, duration: 10 days, oral, diet, Sprague-Dawley, generation: F1): 1100 mg/kg-day
NOAEL (Rattus norvegicus [6]; reproduction developmental, duration: 14 days, oral, diet, Fischer 344, generation: F0): 750 mg/kg-day
NOAEL (Rattus norvegicus [6]; reproduction developmental, duration: 20 days, oral, diet, Wistar, generation: F1): > 1020 mg/kg-day
NOAEL (Rattus norvegicus [6]; reproduction developmental, duration: 21 days, oral, diet, Fischer 344, generation: F0): ≤ 679 mg/kg-day
NOAEL (Rattus norvegicus [6]; reproduction developmental, oral, diet, F, Wistar): < 631 mg/kg-day
NOAEL (Rattus norvegicus [6]; reproduction developmental, oral, diet, Wistar, generation: F0): 206 mg/kg-day
NOAEL (Rattus norvegicus [6]; short-term, duration: 14 days, oral, gavage, Sprague-Dawley): 160 mg/kg-day
NOAEL (Rattus norvegicus [6]; short-term, duration: 14 days, oral, gavage, Wistar): 480 mg/kg-day
LOAEL (Rattus norvegicus [6]; short-term, duration: 21 days, oral, diet, Fischer 344): 639 mg/kg-day
LOAEL (Rattus norvegicus [6]; short-term, duration: 28 days, oral, diet, Fischer 344): 540 mg/kg-day
NOAEL (Rattus norvegicus [6]; short-term, duration: 28 days, oral, diet, Sprague-Dawley): 1000 mg/kg-day
NOAEL (Rattus norvegicus [6]; subchronic, duration: 42 days, oral, diet, Sprague-Dawley): 500 mg/kg-day
NOAEL (Rattus norvegicus [6]; subchronic, duration: 90 days, inhalation, Sprague-Dawley): 0.218 mg/L
NOAEL (Rattus norvegicus [6]; subchronic, duration: 90 days, oral, diet, Sprague-Dawley): 375 mg/kg-day
NOAEL (Rattus norvegicus [6]; subchronic, duration: 90 days, oral, diet, Wistar): 151 mg/kg-day
LOAEL (Rattus norvegicus [7]): 470 mg/kg-day
NOAEL (Rattus norvegicus [7]): 159 mg/kg-day
NOEL (Rattus norvegicus [8]; Albino, generation: F1, F1: AGD (units not specified)): 100 mg/kg-day
LOEL (Rattus norvegicus [8]; drinking water, Wistar Alpk, generation: F1, F1: AGD (mm)): 0.18 mg/kg-day
NOEL (Rattus norvegicus [8]; gavage, Crj:CD, generation: F1, F1: AGD (mm) + F1: AGD (mm/cube root BW)): 400 mg/kg-day
LOEL (Rattus norvegicus [8]; gavage, Crj:CD, generation: F2, F2: AGD (mm)): 100 mg/kg-day
NOAEL (Rattus norvegicus [9]): 159 mg/kg-day

CC(=O)O[C@]1(C(C)=O)CC[C@H]2[C@@H]3C=C(Cl)C4=CC(=O)[C@@H]5C[C@@H]5[C@]4(C)[C@H]3CC[C@@]21C [Cyproterone acetate]
LEL (Mus musculus [1]; duration: 36 days): 2 mg and 1 mg/day
LOEL (Rattus norvegicus [2]; Hershberger, duration: 10 days, oral, gavage, Wistar, active + Negative + Antiandrogenic + anti-androgenic): 0.4 mg/kg-day
LEL (Rattus norvegicus [2]; duration: 36 days, injection, subcutaneous): 3 mg and 1 mg/day

Source: EPA's ToxValDB 9.5
